Test results reported in patent publication US5369125A, “Cholesterol-lowering agents” (Merck & Co., Inc., priority 1993, dated 1994).
In brackets after ≈: the same amount, converted by molar mass.

Key:
Candida albicans MY1055 = experiment: Minimum fungicidal concentration, Candida albicans; type: cell-based; conditions: 35° C.
Protocol: (§1) The compounds are particularly active towards filamentous fungi and yeasts including Candida albicans and Cryptococcus neoformans. The sensitivity of filamentous fungi and yeast was determined using inhibitor dilution assays in microtiter format. The compounds were dissolved in 10% DMSO at 256 μg/mL and serially diluted in (DIFCO) Yeast Nitrogen Base supplemented with 1% glucose (YNBD) by two-fold dilutions yielding final drug concentrations ranging from 128-0.06 μg/mL. The wells were filled with 150 μL of inoculated media. Exponential phase Candida and Cryptococcus cells were diluted in YNBD such that the inoculum was 1.5-7.5×10^3 cells/mL. Aspergillus spores were harvested from a well-sporulated Sabouraud Dextrose Agar (SDA) slant in 0.01% Tween 80 and diluted into media to give an inoculum of 1×10^3 spores/mL. The microtiter dishes were incubated at 35° C. for 24 to 48 hours. […] After recording the MIC of yeasts, plates were shaken on a (SARSTEDT) TPM2 shaker to resuspend the cells and a MIC-2000 inoculator (DYNATECH) was used to transfer a 1.5 μL sample from each well in the microplate to a spot in a single-well tray containing SDA. Inoculated trays were incubated at 35° C. and results were recorded at 24 h or 48 h (for Cryptococcus). The minimum fungicidal concentration (MFC) was defined as the lowest concentration of drug showing no growth or less than 4 colonies per spot. […]

[1] = tested on: Aspergillus fumigatus MF4839; experiment: Broth dilution antifungal assay (MIC), Aspergillus fumigatus; type: cell-based; conditions: 24 to 48 hours at 29° C., read-out: Minimum Inhibitory Concentration (MIC)
Protocol: as §1

[2] = tested on: Cryptococcus neoformans MY1051; experiment: Minimum fungicidal concentration, Cryptococcus neoformans; type: cell-based; conditions: 35° C.
Protocol: as §1

Squalene Synthase = target: T1, Squalene Synthase (Rattus norvegicus, UniProt Q02769); experiment: Squalene synthase assay (standard in vitro protocol, rat liver microsomes, [4-14C]farnesyl pyrophosphate); type: biochemical; conditions: 30° C., 20 minutes
T1 construct: The livers from these rats were homogenized in 5 volumes (mL/g) of ice cold 50 mM HEPES; from tissue; host or cells: liver microsomes of male Charles River CD rats fed 0.1% lovastatin
T1 sequence (Q02769 1-416): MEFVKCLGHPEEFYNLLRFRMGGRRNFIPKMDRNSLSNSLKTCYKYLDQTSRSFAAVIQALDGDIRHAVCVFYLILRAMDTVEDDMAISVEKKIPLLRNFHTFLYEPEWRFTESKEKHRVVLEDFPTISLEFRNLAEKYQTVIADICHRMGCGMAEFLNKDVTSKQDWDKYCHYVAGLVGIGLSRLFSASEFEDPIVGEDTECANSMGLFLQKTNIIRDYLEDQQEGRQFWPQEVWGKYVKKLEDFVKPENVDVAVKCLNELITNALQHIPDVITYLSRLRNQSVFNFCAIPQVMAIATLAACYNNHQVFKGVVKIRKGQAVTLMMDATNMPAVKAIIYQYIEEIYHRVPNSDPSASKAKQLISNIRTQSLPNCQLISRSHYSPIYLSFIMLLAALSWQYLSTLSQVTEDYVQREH
Protocol: The intrinsic squalene synthase inhibitory activity of representative compounds of this invention was measured by the standard in vitro protocol described below:
Preparation of Rat Liver Microsomes
Male, CHARLES RIVER CD® rats (120 to 150 g) were fed a diet containing 0.1% lovastatin for 4 days. The livers from these rats were homogenized in 5 volumes (mL/g) of ice cold 50 mM HEPES (4-(2-hydroxyethyl)-1-piperazine-ethanesulfonic acid), 5 mM EDTA(ethylenediaminetetraacetic acid) pH 7.5 with a Potter-Elvehjem type tissue grinder. The homogenate was centrifuged twice at 20,000× g for 15 min. at 4° C., discarding the pellet each time. The supernatant was then centrifuged at 100,000× g for 1 hr at 4° C. The resulting microsomal pellet was resuspended in a volume of the above homogenizing buffer equal to one-fifth the volume of the original homogenate. This microsomal preparation has a protein concentration of about 7 mg/mL. The microsomal suspensions were stored in aliquots at -70° C. Squalene synthase activity in these aliquots is stable for a least several months.
Partial Purification of Prenyl Transferase
Prenyl transferase was purified to use in the enzymatic synthesis of radiolabelled farnesyl pyrophosphate. […]

[3] = target: T2, Farnesyl-protein transferase (Ftase) from bovine brain (Bos taurus, UniProt P29702+P49355); experiment: Farnesyl-transferase assay (inhibition of Ras farnesylation in vitro); type: biochemical; conditions: Ras-CVLS 3.5 μM, 0.25 μM [3H]FPP, partially purified bovine brain enzyme
T2 construct: Farnesyl-protein transferase (Ftase) from bovine brain was chromatographed on DEAE--Sephacel; from tissue; host or cells: bovine brain, partially purified by chromatography
Protocol: FARNESYL-TRANSFERASE ASSAY
Farnesyl-protein transferase (Ftase) from bovine brain was chromatographed on DEAE--Sephacel (Pharmacia, 0-0.8M NaCl gradient elution), N-octyl agarose (Sigma, 0-0.6M NaCl gradient elution), and a MONO Q HPLC column (Pharmacia, 0-0.3M NaCl gradient). Ras-CVLS at 3.5 μM, 0.25 μM [^3 H]FPP, and the indicated compounds were incubated with this partially purified enzyme preparation. The Ftase data is a measurement of the ability of the test compound to inhibit Ras farnesylation in vitro.

Ras farnesylation = conditions: Hancock et al., Casey et al., Schafer et al.; cited from earlier work

Compound	MFC (Candida albicans MY1055) [µg/mL]	MIC [1] [µg/mL]	MFC [2] [µg/mL]	IC50 (Squalene Synthase) [nM]	IC50 [3] [µM]	Inhibition of Ras farnesylation in vivo (Ras farnesylation)
C=C(CC[C@]12O[C@H](C)[C@@](O)(C(=O)O)[C@](C(=O)O)(O1)[C@H](OC(=O)/C=C/[C@@H](C)C[C@@H](C)CC)[C@H]2O)[C@@H](OC(C)=O)[C@H](C)Cc1ccccc1 [Compound 128, IIA-3-methyl]	128 (≈ 194 µM)	16 (≈ 24.2 µM)	0.5 (≈ 0.757 µM)	3.5	3.3	–
CC[C@H](C)C(=O)O[C@H]1CCC=C2C=C[C@H](C)[C@H](CC[C@@H]3C[C@@H](O)CC(=O)O3)[C@H]21 [compactin]	–	–	–	–	–	Inhibition of Ras farnesylation in vivo has been demonstrated
CC[C@H](C)C(=O)O[C@H]1C[C@@H](C)C=C2C=C[C@H](C)[C@H](CC[C@@H]3C[C@@H](O)CC(=O)O3)[C@H]21 [lovastatin]	–	–	–	–	–	Inhibition of Ras farnesylation in vivo has been demonstrated
